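Step 1: Grow cells in 96-well plates. Step 2: Expose to compound for 48 hours at 5 concentrations. Step 3: Interpolate endpoints linearly; if unreached, use highest concentration. GI50 is the concentration that inhibits growth by half. The concentration for full growth arrest is given as TGI.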

The subject of one test is RXF 393 renal. In words: DTP human tumour cell line panel, 48 h.
By TGI is commonly meant the concentration giving total growth inhibition. A lower TGI goes with greater sensitivity of the cells. For the compound `O=S(=O)(O)c1ccc2cccc(N=Nc3c(O)ccc4ccccc34)c2c1`, the concentration for total growth inhibition (TGI) is greater than 100 µM.

The term GI50 denotes the concentration that inhibits growth by half. Regarding `COc1ccc2nc(-c3ccc(-c4noc(-c5cc(OC)c(OC)c(OC)c5)n4)cc3)[nH]c2c1`, the GI50 is 5.24 µM and the TGI was 19.1 µM.

In the case of `COc1ccc(/C(=C2/O[C@@H]([C@H]3COC(C)(C)O3)[C@H]3OC(C)(C)O[C@@H]23)c2cc(OC)c(OC)c(OC)c2)cc1O`, the GI50 is 2.35 µM and the TGI is 5.07 µM.

As for `Cn1c(=O)c2c(nc(-n3nc(-c4ccc(Cl)cc4)cc3N)n2C)n(C)c1=O`, the total growth inhibition concentration (TGI) was greater than 100 µM.

As to `N=c1c2c(C(N)=O)cn(C3OC(CO)C(O)C3O)c2ncn1O` (stereo not drawn), the TGI amounted to 3.71 µM. This lies in the single-digit micromolar range.

On to `CCS(=O)(=O)Nc1ccc(Nc2c3ccccc3nc3ccccc23)c(OC)c1`, for which the TGI was 9.6 µM. Compared with the last compound, the TGI is about 2.6-fold higher.

`Cc1nc(N)nc(N)c1-c1ccc(Cl)c(Cl)c1` gave a TGI greater than 79.9 µM.

As to `Cc1cccc2nc3c(C(=O)NCCN(C)C)cccc3cc12`, the total growth inhibition concentration (TGI) is 4.13 µM.

Consider `C[C@]12CC[C@@H]3c4ccc(OP(=O)(O)O)cc4CC[C@H]3[C@@H]1CCC2=O`, for which the concentration for total growth inhibition (TGI) was greater than 100 µM.

Consider `CCSCCC(N)C(=O)O` (stereo not drawn), for which the total growth inhibition concentration (TGI) is greater than 100 µM.

Regarding `COc1ccc2nc(N/N=C/C(C)=N/Nc3cc(C)c4cc(OC)ccc4n3)cc(C)c2c1`, the TGI is greater than 83.1 µM.

The subject of a further test is SK-MEL-2 melanoma. In words: DTP human tumour cell line panel, 48 h.
Turning to `CCN(CC)CC(C)Nc1ccc([N+](=O)[O-])c2sc3ccccc3c(=O)c12` (stereo not drawn), the GI50 is 1.94 µM and the TGI came out at 5.04 µM.

Consider `N=C(N)c1ccc(-c2ccc(-c3cc(Cl)cc(Cl)c3)o2)nc1`, for which the GI50 is 2.09 µM and the TGI is 3.9 µM.

`CNC(=O)OC(C)CN1c2ccccc2Sc2ccc(Cl)cc21` (stereo not drawn) registered a concentration for total growth inhibition (TGI) greater than 10 µM.

`CN1CC[C@@]2(c3cccc(O)c3)CC(=O)/C(=C/c3ccccc3)[C@H]1C2` yielded a concentration for total growth inhibition (TGI) of 87.2 µM.

For `O=C(N/N=C(/c1ccccc1)C(F)(F)F)c1ccncc1`, the TGI is greater than 100 µM.

`ONc1ncnc2nc[nH]c12` yielded a total growth inhibition concentration (TGI) greater than 100 µM.

`CCCc1[nH]c(SCCCCCCCCSc2nc(-c3ccc(F)cc3)c(CCC)[nH]2)nc1-c1ccc(F)cc1` had a concentration for total growth inhibition (TGI) greater than 100 µM.

As to `O=S(=O)(O)c1ccc2cccc(N=Nc3c(O)ccc4ccccc34)c2c1`, the concentration for total growth inhibition (TGI) was greater than 100 µM.

In the case of `COc1ccc2nc(-c3ccc(-c4noc(-c5cc(OC)c(OC)c(OC)c5)n4)cc3)[nH]c2c1`, the GI50 was 18.9 µM and the TGI was determined as 51.1 µM.

Take `COc1ccc(/C(=C2/O[C@@H]([C@H]3COC(C)(C)O3)[C@H]3OC(C)(C)O[C@@H]23)c2cc(OC)c(OC)c(OC)c2)cc1O`: the GI50 was 3.26 µM and the concentration for total growth inhibition (TGI) worked out at 8.44 µM.

In the case of `Cn1c(=O)c2c(nc(-n3nc(-c4ccc(Cl)cc4)cc3N)n2C)n(C)c1=O`, the TGI is greater than 100 µM.

Regarding `N=c1c2c(C(N)=O)cn(C3OC(CO)C(O)C3O)c2ncn1O` (stereo not drawn), the total growth inhibition concentration (TGI) came out at 2.33 µM.

In turn, `CCS(=O)(=O)Nc1ccc(Nc2c3ccccc3nc3ccccc23)c(OC)c1` displayed a TGI of 18.8 µM.

`Cc1nc(N)nc(N)c1-c1ccc(Cl)c(Cl)c1` gave a TGI greater than 90.6 µM.

The compound `Cc1cccc2nc3c(C(=O)NCCN(C)C)cccc3cc12` came in with a TGI of 3.46 µM.

The compound `C[C@]12CC[C@@H]3c4ccc(OP(=O)(O)O)cc4CC[C@H]3[C@@H]1CCC2=O` came in with a total growth inhibition concentration (TGI) greater than 100 µM.

The compound `CCSCCC(N)C(=O)O` (stereo not drawn) displayed a total growth inhibition concentration (TGI) greater than 100 µM.

Turning to `COc1ccc2nc(N/N=C/C(C)=N/Nc3cc(C)c4cc(OC)ccc4n3)cc(C)c2c1`, the TGI is greater than 82.1 µM.

A further test concerns SW-620 colon. In words: DTP human tumour cell line panel, 48 h.
`CCN(CC)CC(C)Nc1ccc([N+](=O)[O-])c2sc3ccccc3c(=O)c12` (stereo not drawn): the GI50 was 1.25 µM and the TGI was determined as 4.13 µM.

Turning to `N=C(N)c1ccc(-c2ccc(-c3cc(Cl)cc(Cl)c3)o2)nc1`, the GI50 was 1.78 µM and the TGI stood at 3.41 µM.

`CCOC(=O)CSc1nc(N)c2c(-c3ccc(OC)c(OC)c3)c3c(nc2n1)CCCC3` showed a TGI greater than 100 µM.

Regarding `CNC(=O)OC(C)CN1c2ccccc2Sc2ccc(Cl)cc21` (stereo not drawn), the concentration for total growth inhibition (TGI) is greater than 10 µM.

For the compound `O=C(CCCCCCC(=O)Nc1ccc(N(CCCl)CCCl)cc1)NO`, the GI50 is 1.71 µM and the total growth inhibition concentration (TGI) worked out at 22 µM.

For `CN1CC[C@@]2(c3cccc(O)c3)CC(=O)/C(=C/c3ccccc3)[C@H]1C2`, the concentration for total growth inhibition (TGI) was found to be 10.1 µM.

The compound `ONc1ncnc2nc[nH]c12` yielded a TGI greater than 100 µM.

In the case of `CCCc1[nH]c(SCCCCCCCCSc2nc(-c3ccc(F)cc3)c(CCC)[nH]2)nc1-c1ccc(F)cc1`, the total growth inhibition concentration (TGI) is greater than 100 µM.

For `O=S(=O)(O)c1ccc2cccc(N=Nc3c(O)ccc4ccccc34)c2c1`, the concentration for total growth inhibition (TGI) is greater than 100 µM.

Turning to `COc1ccc2nc(-c3ccc(-c4noc(-c5cc(OC)c(OC)c(OC)c5)n4)cc3)[nH]c2c1`, the GI50 was 5.89 µM and the TGI was 56.5 µM.

Turning to `COc1ccc(/C(=C2/O[C@@H]([C@H]3COC(C)(C)O3)[C@H]3OC(C)(C)O[C@@H]23)c2cc(OC)c(OC)c(OC)c2)cc1O`, the GI50 was 7.28 µM and the TGI was greater than 100 µM.

In turn, `N=c1c2c(C(N)=O)cn(C3OC(CO)C(O)C3O)c2ncn1O` (stereo not drawn) displayed a total growth inhibition concentration (TGI) of 0.497 µM.

Compound `CCS(=O)(=O)Nc1ccc(Nc2c3ccccc3nc3ccccc23)c(OC)c1` gave a TGI of 7.13 µM.

On to `Cc1nc(N)nc(N)c1-c1ccc(Cl)c(Cl)c1`, for which the total growth inhibition concentration (TGI) is greater than 100 µM.

The compound `Cc1cccc2nc3c(C(=O)NCCN(C)C)cccc3cc12` gave a concentration for total growth inhibition (TGI) of 4.49 µM.

`C[C@]12CC[C@@H]3c4ccc(OP(=O)(O)O)cc4CC[C@H]3[C@@H]1CCC2=O` registered a total growth inhibition concentration (TGI) greater than 100 µM.

On to `CCSCCC(N)C(=O)O` (stereo not drawn), for which the total growth inhibition concentration (TGI) was greater than 100 µM.

`COc1ccc2nc(N/N=C/C(C)=N/Nc3cc(C)c4cc(OC)ccc4n3)cc(C)c2c1` came in with a TGI of 43.5 µM.

The values above are taken from PubChem BioAssay (NCI).
